Test results: ChEMBL document CHEMBL1909046, “DrugMatrix in vitro pharmacology data”

What was measured:
[1] = target: Sigma non-opioid intracellular receptor 1 (Homo sapiens, UniProt Q99720); assay: DRUGMATRIX: Sigma1 radioligand binding (ligand: [3H] Haloperidol); type: cell membranes, Jurkat, Membrane; conditions: jurkat; Not Active = under 50% inhibition at 10 µM
[2] = target: Receptor tyrosine-protein kinase erbB-2 (Homo sapiens, UniProt P04626); assay: biochemical; type: cell-based, Insect cells; conditions: insect cells;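 also: inhibition of HER2 kinase enzyme activity, measured with Poly(Glu:Tyr) as the phosphorylation substrate; in other assays of this panel Not Active means under 50% inhibition at 10 µM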
Receptor tyrosine-protein kinase erbB-2, sequence (P04626 whole entry): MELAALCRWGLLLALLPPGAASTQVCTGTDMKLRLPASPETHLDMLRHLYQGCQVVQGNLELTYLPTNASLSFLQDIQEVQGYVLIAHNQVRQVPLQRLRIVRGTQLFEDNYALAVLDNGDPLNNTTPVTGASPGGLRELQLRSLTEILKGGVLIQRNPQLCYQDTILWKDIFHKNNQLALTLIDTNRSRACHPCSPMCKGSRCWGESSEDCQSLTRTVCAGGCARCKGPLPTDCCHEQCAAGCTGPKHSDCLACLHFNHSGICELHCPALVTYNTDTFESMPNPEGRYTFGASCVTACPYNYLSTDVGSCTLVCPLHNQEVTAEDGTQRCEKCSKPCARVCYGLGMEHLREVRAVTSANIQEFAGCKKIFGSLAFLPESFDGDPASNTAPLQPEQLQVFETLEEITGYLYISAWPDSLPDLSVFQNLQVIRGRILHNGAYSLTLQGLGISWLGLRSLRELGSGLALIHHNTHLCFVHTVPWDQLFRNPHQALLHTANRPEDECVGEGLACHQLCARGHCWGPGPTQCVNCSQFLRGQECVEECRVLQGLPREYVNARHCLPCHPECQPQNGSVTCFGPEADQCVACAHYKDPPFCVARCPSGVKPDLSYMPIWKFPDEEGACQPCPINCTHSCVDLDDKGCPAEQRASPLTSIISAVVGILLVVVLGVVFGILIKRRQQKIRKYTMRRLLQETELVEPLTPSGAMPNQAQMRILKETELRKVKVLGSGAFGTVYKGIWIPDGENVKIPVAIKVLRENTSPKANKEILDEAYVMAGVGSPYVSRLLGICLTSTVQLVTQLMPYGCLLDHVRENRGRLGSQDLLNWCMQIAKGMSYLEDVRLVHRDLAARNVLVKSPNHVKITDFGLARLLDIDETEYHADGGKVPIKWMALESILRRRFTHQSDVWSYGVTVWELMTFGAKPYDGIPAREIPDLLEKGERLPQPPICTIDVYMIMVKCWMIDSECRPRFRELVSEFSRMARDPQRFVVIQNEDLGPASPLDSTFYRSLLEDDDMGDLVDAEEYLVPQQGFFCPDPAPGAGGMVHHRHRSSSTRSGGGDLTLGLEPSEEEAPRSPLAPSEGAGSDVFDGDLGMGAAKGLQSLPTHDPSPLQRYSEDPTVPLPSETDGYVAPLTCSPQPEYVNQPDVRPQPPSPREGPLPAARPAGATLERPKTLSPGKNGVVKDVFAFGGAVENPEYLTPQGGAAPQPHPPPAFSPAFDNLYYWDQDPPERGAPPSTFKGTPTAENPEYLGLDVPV

[3] = target: T1, Alpha-1A adrenergic receptor (Rattus norvegicus, UniProt P43140); assay: DRUGMATRIX: Alpha-1A adrenergic receptor radioligand binding (ligand: prazosin); type: cell membranes, Wistar, Submaxillary gland, Membrane; conditions: Not Active = under 50% inhibition at 10 µM
T1 sequence (P43140 whole entry): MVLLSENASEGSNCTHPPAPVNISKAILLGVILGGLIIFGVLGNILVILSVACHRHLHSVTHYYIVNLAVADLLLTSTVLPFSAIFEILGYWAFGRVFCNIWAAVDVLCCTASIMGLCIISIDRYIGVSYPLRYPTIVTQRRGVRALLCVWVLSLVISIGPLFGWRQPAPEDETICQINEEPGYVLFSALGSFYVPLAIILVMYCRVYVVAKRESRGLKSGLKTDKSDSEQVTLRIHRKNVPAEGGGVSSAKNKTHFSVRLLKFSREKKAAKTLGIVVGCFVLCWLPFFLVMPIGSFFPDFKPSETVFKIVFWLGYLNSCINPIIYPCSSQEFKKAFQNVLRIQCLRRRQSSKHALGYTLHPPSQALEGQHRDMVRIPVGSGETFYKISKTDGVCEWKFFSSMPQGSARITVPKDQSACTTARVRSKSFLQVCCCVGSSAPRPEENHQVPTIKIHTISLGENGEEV

[4] = target: T2, Adenosine receptor A1 (Homo sapiens, UniProt P30542); type: cell membranes, CHO, Membrane; conditions: cho;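 also: radioligand binding assay at the adenosine A1 receptor, with DPCPX serving as the labelled ligand; in other assays of this panel Not Active means under 50% inhibition at 10 µM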
T2 sequence (P30542 whole entry): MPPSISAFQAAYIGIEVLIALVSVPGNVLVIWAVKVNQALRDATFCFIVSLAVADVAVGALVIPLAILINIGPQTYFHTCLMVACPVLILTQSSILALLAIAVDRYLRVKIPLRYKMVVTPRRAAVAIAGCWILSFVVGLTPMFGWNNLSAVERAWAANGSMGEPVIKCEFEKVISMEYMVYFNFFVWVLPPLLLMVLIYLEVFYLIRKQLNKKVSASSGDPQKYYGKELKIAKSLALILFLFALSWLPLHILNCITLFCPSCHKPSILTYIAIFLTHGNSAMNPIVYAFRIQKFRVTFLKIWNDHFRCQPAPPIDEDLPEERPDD

[5] = target: T3, C-X-C chemokine receptor type 1 (Homo sapiens, UniProt P25024); also: in other assays of this panel Not Active means under 50% inhibition at 10 µM
T3 sequence (P25024 whole entry): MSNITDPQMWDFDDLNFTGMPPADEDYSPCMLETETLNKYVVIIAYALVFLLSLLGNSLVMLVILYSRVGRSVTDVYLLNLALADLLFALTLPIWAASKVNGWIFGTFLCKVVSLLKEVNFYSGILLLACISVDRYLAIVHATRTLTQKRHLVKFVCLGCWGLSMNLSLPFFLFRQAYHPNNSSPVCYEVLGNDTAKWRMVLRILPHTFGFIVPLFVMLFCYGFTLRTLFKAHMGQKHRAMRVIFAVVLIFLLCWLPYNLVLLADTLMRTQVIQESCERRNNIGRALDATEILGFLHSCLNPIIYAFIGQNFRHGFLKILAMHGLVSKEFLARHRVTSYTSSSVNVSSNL

[6] = target: T4, Neuropeptide Y receptor type 2 (Homo sapiens, UniProt P49146); type: cell membranes, Membrane; conditions: kan-ts; also: in other assays of this panel Not Active means under 50% inhibition at 10 µM
T4 sequence (P49146 whole entry): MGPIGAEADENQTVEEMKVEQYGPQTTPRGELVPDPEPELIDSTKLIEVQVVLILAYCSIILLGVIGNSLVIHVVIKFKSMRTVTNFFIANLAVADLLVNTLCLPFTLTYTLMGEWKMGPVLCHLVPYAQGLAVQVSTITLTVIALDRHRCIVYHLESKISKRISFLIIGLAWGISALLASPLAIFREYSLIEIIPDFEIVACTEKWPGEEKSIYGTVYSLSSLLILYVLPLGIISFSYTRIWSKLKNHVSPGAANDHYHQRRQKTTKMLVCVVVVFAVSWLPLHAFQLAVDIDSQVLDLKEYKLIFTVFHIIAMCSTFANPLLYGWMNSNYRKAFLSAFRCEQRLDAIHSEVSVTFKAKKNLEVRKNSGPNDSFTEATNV

[7] = DRUGMATRIX: Calcium Channel Type L, Phenylalkylamine radioligand binding (ligand: [3H] (-)-Desmethoxyverapamil (D-888)); type: cell membranes, Rattus norvegicus, Wistar, Brain, Membrane; conditions: Not Active = under 50% inhibition at 10 µM
[8] = target: T5, Endothelin-1 receptor (Homo sapiens, UniProt P25101); type: cell membranes, Membrane; conditions: cho-k1; also: in other assays of this panel Not Active means under 50% inhibition at 10 µM
T5 sequence (P25101 whole entry): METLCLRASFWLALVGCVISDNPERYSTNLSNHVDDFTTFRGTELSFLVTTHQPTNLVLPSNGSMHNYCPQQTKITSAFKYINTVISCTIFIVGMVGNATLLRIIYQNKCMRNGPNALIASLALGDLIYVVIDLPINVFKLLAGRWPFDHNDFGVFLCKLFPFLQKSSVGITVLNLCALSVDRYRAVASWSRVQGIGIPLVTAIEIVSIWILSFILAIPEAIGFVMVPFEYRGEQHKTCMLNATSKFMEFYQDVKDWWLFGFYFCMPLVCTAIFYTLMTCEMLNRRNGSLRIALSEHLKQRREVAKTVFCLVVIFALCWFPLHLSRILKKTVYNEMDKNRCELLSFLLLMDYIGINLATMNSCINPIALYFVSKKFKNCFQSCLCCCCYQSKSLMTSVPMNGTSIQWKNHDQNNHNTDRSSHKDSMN

[9] = target: T6, Alpha-2A adrenergic receptor (Homo sapiens, UniProt P08913); type: cell membranes, Sf9, Membrane; conditions: sf9; also: in other assays of this panel Not Active means under 50% inhibition at 10 µM
T6 sequence (P08913 whole entry): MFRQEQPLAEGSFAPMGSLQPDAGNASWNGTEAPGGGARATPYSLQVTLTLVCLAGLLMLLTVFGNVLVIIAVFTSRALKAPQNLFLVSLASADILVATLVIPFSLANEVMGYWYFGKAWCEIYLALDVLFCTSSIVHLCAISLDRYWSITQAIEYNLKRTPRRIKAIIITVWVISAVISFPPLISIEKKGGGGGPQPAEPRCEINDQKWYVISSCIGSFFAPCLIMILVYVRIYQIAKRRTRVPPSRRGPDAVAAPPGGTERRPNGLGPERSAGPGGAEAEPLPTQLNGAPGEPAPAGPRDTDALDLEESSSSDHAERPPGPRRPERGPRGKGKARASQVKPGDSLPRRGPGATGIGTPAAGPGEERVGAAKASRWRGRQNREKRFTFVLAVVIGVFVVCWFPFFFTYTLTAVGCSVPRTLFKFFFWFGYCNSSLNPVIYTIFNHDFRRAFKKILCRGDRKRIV

Sigma non-opioid intracellular receptor 1, sequence (Q99720 whole entry): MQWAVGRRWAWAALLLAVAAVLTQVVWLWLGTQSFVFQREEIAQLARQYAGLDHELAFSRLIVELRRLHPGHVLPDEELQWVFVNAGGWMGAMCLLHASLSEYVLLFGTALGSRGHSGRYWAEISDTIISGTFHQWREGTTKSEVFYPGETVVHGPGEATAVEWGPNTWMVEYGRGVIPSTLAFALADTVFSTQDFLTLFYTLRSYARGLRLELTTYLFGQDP

O=[N+]([O-])c1cc([As](=O)(O)O)ccc1O [ROXARSONE]
Not Active: IC50 [1] | Ki [1] | IC50 [2] | Ki [2] | IC50 [3] | Ki [3] | IC50 [4] | Ki [4] | IC50 [5] | Ki [5] | IC50 [6] | Ki [6] | IC50 [7] | Ki [7] | IC50 [8] | Ki [8] | IC50 [9] | Ki [9]

CC[C@H]1OC(=O)[C@H](C)[C@@H](O[C@H]2C[C@@](C)(OC)[C@@H](O)[C@H](C)O2)[C@H](C)[C@@H](O[C@@H]2O[C@H](C)C[C@H](N(C)C)[C@H]2O)[C@](C)(O)C[C@@H](C)/C(=N\OCOCCOC)[C@H](C)[C@@H](O)[C@]1(C)O [ROXITHROMYCIN]
Not Active: IC50 [1] | IC50 [2] | IC50 [3] | IC50 [4] | IC50 [5] | IC50 [6] | IC50 [7] | Ki [7] | IC50 [8] | IC50 [9]

NC(=O)c1ccccc1O [SALICYLAMIDE]
Not Active: IC50 [1] | IC50 [2] | IC50 [3] | IC50 [4] | IC50 [5] | IC50 [6] | IC50 [7] | Ki [7] | IC50 [8] | IC50 [9]

Cc1ncc([N+](=O)[O-])n1CC(C)O (stereo not drawn) [SECNIDAZOLE]
Not Active: IC50 [1] | IC50 [2] | IC50 [3] | IC50 [4] | IC50 [5] | IC50 [6] | IC50 [7] | Ki [7] | IC50 [8] | IC50 [9]

CN[C@@H]1[C@@H](O)[C@@H](O[C@@H]2[C@@H](O)[C@H](O[C@H]3OC(CN)=CC[C@H]3N)[C@@H](N)C[C@H]2N)OC[C@]1(C)O [SISOMICIN]
Not Active: IC50 [1] | IC50 [2] | IC50 [3] | IC50 [4] | IC50 [5] | IC50 [6] | IC50 [7] | Ki [7] | IC50 [8] | IC50 [9]

CC(=O)S[C@@H]1CC2=CC(=O)CC[C@]2(C)[C@H]2CC[C@@]3(C)[C@@H](CC[C@@]34CCC(=O)O4)[C@H]12 [SPIRONOLACTONE]
Not Active: IC50 [1] | IC50 [2] | IC50 [3] | IC50 [4] | IC50 [5] | IC50 [6] | IC50 [7] | Ki [7] | IC50 [8] | IC50 [9]

C[C@]12Cc3c[nH]nc3C[C@@H]1CC[C@@H]1[C@@H]2CC[C@@]2(C)[C@H]1CC[C@]2(C)O [STANOZOLOL]
Not Active: IC50 [1] | IC50 [2] | IC50 [3] | IC50 [4] | IC50 [5] | IC50 [6] | IC50 [7] | Ki [7] | IC50 [8] | IC50 [9]

CN(N=O)C(=O)N[C@@H](C=O)[C@@H](O)[C@H](O)[C@H](O)CO [STREPTOZOCIN]
Not Active: IC50 [1] | IC50 [2] | IC50 [3] | IC50 [4] | IC50 [5] | IC50 [6] | IC50 [7] | Ki [7] | IC50 [8] | IC50 [9]

Cc1cc(NS(=O)(=O)c2ccc(N)cc2)no1 [SULFAMETHOXAZOLE]
Not Active: IC50 [1] | IC50 [2] | IC50 [3] | IC50 [4] | IC50 [5] | IC50 [6] | IC50 [7] | Ki [7] | IC50 [8] | IC50 [9]
